Reference: patent US20260132165A1, “MODIFIED NUCLEOSIDE ANALOGUE AND USE THEREOF, AND NUCLEOSIDE ANALOGUE-CONTAINING DOUBLE-STRANDED OLIGONUCLEOTIDE AND USE THEREOF” (RIGERNA THERAPEUTICS (BEIJING) CO., LTD., priority 2023, published 2026)

Tests used:
target gene SOD1 [1] = test: Test Example 4: lipid conjugated siRNA sequences with different carbon chain lengths, SOD1 in mouse brain, lateral ventricle administration; format: in vivo, C57BL/6j mice; design: Right hemisphere Mean value of inhibition rate / Left hemisphere Mean value of inhibition rate: unit not given here; details: D5; for Left hemisphere Mean value of inhibition rate: left hemisphere (non-administration side); for Left hemisphere Mean value of inhibition rate / Right hemisphere Mean value of inhibition rate: lateral ventricle; for Right hemisphere Mean value of inhibition rate: right hemisphere (administration side)
Experimental: 6-8 Week-old C57BL/6j mice were randomly grouped by body weight. Mice in each group were administered with siRNA by lateral ventricle administration, with an administration dose per mouse depending on a specific test. Taking Bregma in mouse brain as point 0 (origin), coordinates of right ventricle were found using the cerebral stereotaxic apparatus and position was marked on surface of skull (position of lateral ventricle was AP (anteroposterior, bregma anterior and posterior): −0.58 mm, ML (mediolateral, left and right of middle raphe): −1.2 mm, DV (dorsoventral, up and down cerebral dura mater plane): −2.2 mm). A dental electric drill was used to drill in the skull above a position of interest, and then medicament was injected into the lateral ventricle by a micro-dosing pump, wherein a total injection volume was 5 μL, and injection duration was 10 min. Needle was retained for 5 min after completion of injection, and then slowly withdrawn. Afterwards, needle hole was sealed with biomedical glue, and then head skin was adhered. After animals woke up, the animals were returned back to animal house and further fed. PBS control group was administered with the same volume of siRNA-free PBS solution. The day of administration was recorded as 0 day (D0), and the mice were sacrificed at observation point after the administration. Different parts of brain region were respectively taken and stored in the RNAlater.
(§1) RNA extraction: the above tissue samples were taken out from the RNAlater, and smashed for 60 s in Tissuelyser type II full-automatic tissue homogenizer, and total RNAs of various tissue samples were extracted using the full-automatic nucleic acid extraction instrument and the nucleic acid extraction kit from Zhejiang Hanwei Science and Technology Co. Ltd. according to methods described in instructions.
(§2) Reverse transcription reaction: 1 μg of the extracted total RNAs of the tissue samples were taken, and configured into 20 μL of reverse transcription system according to a method described in kit instructions by using a reverse transcription kit (Reverse Transcription System, A3500) from Promega Corporation and selecting Oligo (dT)15 reverse transcription primers, and the reverse transcription reaction was completed. After the reaction was ended, 80 μL of RNase-Free water was added into the reverse transcription system to provide cDNA solution for Real-time PCR detection.
(§3) Real-time PCR detection: 20 μL of Real-time PCR reaction system per PCR detection well was configured according to a method described in kit instructions using SYBR™ Select Master Mix (Catalog number: 4472908) reagent from ABI company. Each detection system contained 5 μL of cDNA template obtained from the above reverse transcription reaction, 10 μL of SYBR™ Select Master Mix, 0.5 μL of 10 μM upstream primers, 0.5 μL of 10 μM downstream primers, and 4 μL of RNase-Free H2O. The configured reaction system was subjected to Real-time PCR amplification on ABI StepOnePlus PCR instrument by a three-step method, wherein an amplification procedure was pre-denaturation at 95° C. for 10 min, then denaturation at 95° C. for 30 s, annealing at 60° C. for 30 s, and extension at 72° C. for 30 s; and processes of denaturation, annealing, and extension were repeated for 40 cycles. Gene expression differences were calculated by the ΔΔCt method after completion of the procedure.
In the real-time fluorescence quantitative PCR method, relative quantitative calculation of remaining expression level and inhibition rate of gene mRNA of interest in various test groups was performed by the ΔΔCt method, and the calculation method is as follows: […]

target gene SOD1 [2] = test: Test Example 9: inhibitory activity of lipid conjugated siRNA sequences on SOD1 in mouse muscle tissues; format: in vivo, C57BL/6j mice; details: D14; for Diaphragm % Mean value of inhibition rate / Heart % Mean value of inhibition rate / Left quadriceps muscle % Mean value of inhibition rate: tail vein injection 5 mg/kg; for Left quadriceps muscle % Mean value of inhibition rate: left hind leg quadriceps muscle; for inhibitory activity compared with the NM200 conjugated reference sequence RZ899076: heart tissues; for inhibitory activity compared with the NM200 conjugated reference sequence RZ899076 / inhibitory action on the left quadriceps muscle and diaphragm: tail vein 5 mg/kg
Experimental: as §1, §2, §3
(§4) In the real-time fluorescence quantitative PCR method, relative quantitative calculation of remaining expression level and inhibition rate of gene mRNA of interest in various test groups was performed by the ΔΔCt method, and the calculation method is as follows:
The present test example evaluated, by an evaluation method for inhibitory activity on a target gene in mice, the inhibitory activity of siRNA sequence RZ899090 with the sense strand with the NM073 conjugation at Position 4, siRNA sequence RZ899091 with the sense strand with the NM074 conjugation at Position 4, siRNA sequence RZ899078 with the sense strand with the NM202 conjugation at Position 6 and siRNA reference sequence RZ899093 with the sense strand with the Uhd conjugation at Position 4, siRNA reference sequence RZ899076 with the sense strand with the NM200 conjugation at Position 4 on the target gene SOD1 of interest in muscle tissues in different parts of mice.
6-8 Week-old C57BL/6j mice were randomly grouped by body weight, 5 per group, 6 groups in total. Mice in each group were dosed with the above siRNA conjugates by tail vein injection, with an administration dose of 5 mg/kg per mouse, and an administration volume of 150 μL. PBS control group was administered with the same volume of siRNA conjugate-free PBS solution. The day of administration was recorded as D0, and 5 mice in each group were sacrificed on D14 after administration. Tissues such as left hind leg quadriceps muscle, diaphragm, and heart tissues were respectively taken and stored in the RNAlater. RNA extraction, reverse transcription, and real-time fluorescence quantitative detection were performed on various tissues according to the above method, and gene expression differences were calculated by the above ΔΔCt method.

target gene SOD1 [3] = test: Test Example 6: inhibitory activity of NM073, NM074 conjugated siRNA sequences on SOD1 by intrathecal administration to rats; format: in vivo, SD rats; details: D28
Experimental: 6-8 Week-old SD rats were randomly grouped by body weight. Rats in each group were administered with siRNA by intrathecal administration, with an administration dose of 900 μg per rat. Injection was administered from rat spinal cord L5-L6, with an administration volume of 40 μL. Needle was retained for 2 min after completion of injection, and then slowly withdrawn. PBS control group was administered with the same volume of siRNA conjugate-free PBS solution. The day of administration was recorded as 0 day (D0), and the rats were sacrificed at observation point after administration. Different segments of spinal cord and different regions of brain were respectively taken and stored in the RNAlater.
as §1, §2, §3, §4
The present test example evaluated, by an evaluation method for inhibitory activity on a target gene by intrathecal administration to rats, the inhibitory activity of siRNA sequence RZ899090 with the NM073 conjugation at Position 4, siRNA sequence RZ899091 with the NM074 conjugation at Position 4 and siRNA control sequence RZ899093 with the Uhd conjugation on the target gene SOD1 of interest in spinal cord and brain of rats. The above conjugation vectors were different in that NM073 was C18 aliphatic chain and NM074 was C20 aliphatic chain.
6-8 Week-old SD rats were randomly grouped by body weight, 5 per group, 4 groups in total. Rats in each group were dosed with the above siRNA conjugates by intrathecal administration, with an administration dose of 900 μg per rat, and an administration volume of 40 μL. PBS control group was administered with the same volume of siRNA conjugate-free PBS solution. The day of administration was recorded as D0, and the rats were sacrificed on D28 after administration. […]

| Substance | Left hemisphere Mean value of inhibition rate (target gene SOD1 [1]; 150 μg per mouse) | Right hemisphere Mean value of inhibition rate (target gene SOD1 [1]; 150 μg per mouse) | Diaphragm % Mean value of inhibition rate (target gene SOD1 [2]) [%] | Heart % Mean value of inhibition rate (target gene SOD1 [2]) [%] | Left quadriceps muscle % Mean value of inhibition rate (target gene SOD1 [2]) [%] | inhibitory activity compared with the NM200 conjugated reference sequence RZ899076 (target gene SOD1 [2]) | inhibitory action on the left quadriceps muscle and diaphragm (target gene SOD1 [2]) | inhibitory activity compared with the vector-free siRNA sequence RX599002 (target gene SOD1 [1]; left and right hemisphere, lateral ventricle 150 μg per mouse) | activity compared with Uhd conjugated reference sequence RZ899093 and NM200 (C22) conjugated reference sequence RZ899076 (target gene SOD1 [1]; right hemisphere (administration side) and left hemisphere (non-administration side), 150 μg per mouse) | Cerebellum % Mean value of inhibition rate (target gene SOD1 [3]; cerebellum, intrathecal, 900 μg per rat) [%] | Cortex % Mean value of inhibition rate (target gene SOD1 [3]; cerebral cortex, intrathecal, 900 μg per rat) [%] | Hippocampus % Mean value of inhibition rate (target gene SOD1 [3]; hippocampus, intrathecal, 900 μg per rat) [%] | level of inhibition on the target gene compared with the Uhd control conjugate (RZ899093) (target gene SOD1 [3]; intrathecal 900 μg per rat) | Cervical segment % Mean value of inhibition rate (target gene SOD1 [3]; spinal cord cervical segment, intrathecal, 900 μg per rat) [%] | Lumbar segment % Mean value of inhibition rate (target gene SOD1 [3]; spinal cord lumbar segment, intrathecal, 900 μg per rat) [%] | Thoracic segment % Mean value of inhibition rate (target gene SOD1 [3]; spinal cord thoracic segment, intrathecal, 900 μg per rat) [%] |
| --- | --- | --- | --- | --- | --- | --- | --- | --- | --- | --- | --- | --- | --- | --- | --- | --- |
| RZ899076: siRNA reference sequence with the sense strand with the NM200 (C22) conjugation at Position 4; SEQ ID NO: 18 / 24 (sense UUUNAAUCCUCACUCUAAA; antisense UUUAGAGUGAGGAUUAAAAUG; NM200 (C22) conjugate at sense position 4; modified_base 1..2 OTHER; 2'-methoxy and 5'-thiophosphate modified nucleotides; modified_base 3 OTHER; 2'-methoxy modified nucleotide; modified_base 4 OTHER; n is the synthetic nucleotide analog NM200 as described in the disclosure.; modified_base 5..6 OTHER; 2'-methoxy modified nucleotides; modified_base 7..10 OTHER; 2'-fluoro modified nucleotides; modified_base 11..19 OTHER; 2'-methoxy modified ; modified_base 1 OTHER; 2'-methoxy and 5'-thiovinylphosphonate modified nucleotide; modified_base 2 OTHER; 2'-fluoro and 5'-thiophosphate modified …) [reference compound] | 65.25 | 79.02 | 74.58 | 51.69 | 60.97 |  |  |  |  |  |  |  |  |  |  |  |
| RZ899078: siRNA sequence with the sense strand with the NM202 (C22) conjugation at Position 6; SEQ ID NO: 20 / 24 (sense UUUUANUCCUCACUCUAAA; antisense UUUAGAGUGAGGAUUAAAAUG; NM202 (C22) conjugate at sense position 6; modified_base 1..2 OTHER; 2'-methoxy and 5'-thiophosphate modified nucleotides; modified_base 3..5 OTHER; 2'-methoxy modified nucleotides; modified_base 6 OTHER; n is the synthetic nucleotide analog NM202 as described in the disclosure.; modified_base 7..10 OTHER; 2'-fluoro modified nucleotides; modified_base 11..19 OTHER; modified_base 1 OTHER; 2'-methoxy and 5'-thiovinylphosphonate modified nucleotide; modified_base 2 OTHER; 2'-fluoro and 5'-thiophosphate modified nucleotide; modified_base 6 OTHER;) | 30.24 | 52.15 | 47.67 | 68.69 | 32.10 | superior inhibitory activity | certain inhibitory action |  |  |  |  |  |  |  |  |  |
| RZ899090: siRNA sequence with the sense strand with the NM073 (C18) conjugation at Position 4; SEQ ID NO: 15 / 23 (sense UUUNAAUCCUCACUCUAAA; antisense UUUAGAGUGAGGAUUAAAAUG; NM073 (C18) conjugate at sense position 4; modified_base 1..2 OTHER; 2'-methoxy and 5'-thiophosphate modified nucleotides; modified_base 3 OTHER; 2'-methoxy modified nucleotide; modified_base 4 OTHER; n is the nucleotide analog NM073 as described in the disclosure.; modified_base 5..6 OTHER; 2'-methoxy modified nucleotides; modified_base 7..10 OTHER; 2'-fluoro modified nucleotides; modified_base 11..19 OTHER; modified_base 1 OTHER; 2'-methoxy and 5'-thiovinylphosphonate modified nucleotide; modified_base 2 OTHER; 2'-fluoro and 5'-thiophosphate modified nucleotide; modified_base 3..5 OTHER; …) | 67.87 | 78.49 | 43.77 | 67.88 | 33.16 | superior inhibitory activity | certain inhibitory action | superior inhibitory activity | substantially comparable or superior activity | 56.97 | −15.00 | 35.35 | comparable level of inhibition in the spinal cord segment and cerebellum | 69.98 | 93.93 | 94.17 |
